We go through four molecules from patent EP2739628B1.

The structures appear in SMILES notation. Like-named read-outs stand apart in the source and are kept apart here.

The conditions of the series: rcm bond.

`COC(=O)Nc1ccc2c(c1)NC(=O)[C@H](C)C=CC[C@H](NC(=O)OC(C)(C)C)c1nc-2cn1COCC[Si](C)(C)C`: the ring closure, yield of all isomers (from C=CC[C@H](NC(=O)OC(C)(C)C)c1nc(-c2ccc(NC(=O)OC)cc2NC(=O)[C@H](C)C=C)cn1COCC[Si](C)(C)C, Grubbs 2nd generation catalyst (with pTsOH monohydrate), dichloromethane, 9.73 mM, 40.0 °C, 21.5 h) came to 41%. Where the note is “from C=CC[C@H](NC(=O)OC(C)(C)C)c1nc(-c2ccc(NC(=O)OC)cc2N[C@H](CC=C)C(=O)OC)cn1COCC[Si](C)(C)C, Grubbs II, DCE, 40.0 mM, 120.0 °C, 0.33 h”, `COC(=O)Nc1ccc2c(c1)N[C@@H](C(=O)OC)CC=CC[C@H](NC(=O)OC(C)(C)C)c1nc-2cn1COCC[Si](C)(C)C` registered a ring closure, yield of all isomers of 23%.

Molecule `CCOC(=O)C1C/C=C/C[C@H](NC(=O)OC(C)(C)C)c2cc(ccn2)-c2ccc(NC(=O)OC)cc2N1` (stereo partly shown) showed a ring closure, yield of all isomers (from C=CCC(Nc1cc(NC(=O)OC)ccc1-c1ccnc([C@H](CC=C)NC(=O)OC(C)(C)C)c1)C(=O)OCC, Grubbs II) of 47%.

In turn, `COC(=O)Nc1ccc2c(c1)NC(=O)C/C=C/C[C@H](NC(=O)OC(C)(C)C)c1cc-2ccn1` registered a ring closure, yield of all isomers (from C=CCC(=O)Nc1cc(NC(=O)OC)ccc1-c1ccnc([C@H](CC=C)NC(=O)OC(C)(C)C)c1, Grubbs II, DCM, 3.99 mM, 45.0 °C, 19.0 h) of 26%.
